The values below come from article PMC9856672, “SGC-CAMKK2-1: A Chemical Probe for CAMKK2” (Cells, 2023).

As a reminder, the IC50 is the point on the concentration scale where inhibition reaches its midpoint.

SMILES strings stand for the structures.

Test [1] deals with T1, NLuc-CAMKK2 (kinase domain) in HEK293 cells (Homo sapiens, UniProt Q96RR4).
T1 construct: this assay utilizes a nanoluciferase (NL) fused to the kinase domain of CAMKK2; expressed in transfected cells; host or cells: HEK293
T1 sequence (Q96RR4 165-446 limits assumed): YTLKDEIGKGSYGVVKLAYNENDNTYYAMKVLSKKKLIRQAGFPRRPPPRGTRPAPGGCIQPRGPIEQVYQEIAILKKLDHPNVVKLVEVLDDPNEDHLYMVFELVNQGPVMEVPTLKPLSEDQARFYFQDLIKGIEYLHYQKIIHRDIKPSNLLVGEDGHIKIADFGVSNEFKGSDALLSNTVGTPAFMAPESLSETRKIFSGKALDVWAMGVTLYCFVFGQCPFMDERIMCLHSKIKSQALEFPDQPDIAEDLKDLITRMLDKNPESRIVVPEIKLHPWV
The test is described as follows: CAMKK2 NanoBRET in-cell target engagement assay. It counts as cell-based. The settings on record: HEK293 cells transiently transfected with NLuc-CAMKK2. A general note: BRET reads energy transfer from a luciferase to a nearby fluorophore.
Experimental: CAMKK2 NanoBRET assay: To quantify the cellular activity of these inhibitors we developed a CAMKK2 NanoBRET target engagement assay [51, 52]. Briefly this assay utilizes a nanoluciferase (NL) fused to the kinase domain of CAMKK2. This NL kinase fusion is then transiently transfected into HEK293 cells and after 24 h, tracer is added to the cells. When the tracer and the NL-CAMKK2 fusion come into proximity they create a BRET signal that can be competed in a dose-dependent manner by the addition of cell-penetrant CAMKK2 inhibitors.
To evaluate this, we developed a NanoBRET in-cell target engagement assay. For this assay, the CAMKK2 kinase domain fused with a Nanoluciferase (NLuc) tag is transiently transfected into HEK293 cells. After 24 h, a heterobifunctional molecule that consists of an inhibitor that binds to CAMKK2 linked to a BODIPY dye is added to the cells. When the inhibitor–dye hybrid binds to the kinase, the proximity to the NLuc fused to CAMKK2 creates a BRET signal. This signal can then be competed away in a dose-dependent fashion with free inhibitor.

The next test has as its target PIM2 (Homo sapiens, UniProt Q9P1W9). The test is described as follows: PIM2 inhibition at Reaction Biology Corporation. More on the design: purchased Reaction Biology Corporation. Particulars: n = 1, read-out: PIM2 Enzyme IC50. The format is biochemical.
A further test deals with T2, PAK6 (Homo sapiens, UniProt Q9NQU5).
T2 construct: purchased Eurofins DiscoverX KINOMEscan
The test is described as follows: KINOMEscan 1 μM, PAK6. The format is binding. Particulars: 1000 nM; Entrez PAK6; read-out: Percent Control. An excerpt: (§1) Supplement cells-12-00287-s001.zip/File S2. KinomeScan data for the CAMKK2 probe and negative control.xlsx, sheet "SGC-CAMKK2-1" | column: Percent Control

A further test concerns the target T3, WNK2 (Homo sapiens, UniProt Q9Y3S1).
T3 construct: purchased Eurofins DiscoverX KINOMEscan
The test is described as follows: KINOMEscan 1 μM, WNK2. The format is binding. Particulars: 1000 nM; Entrez WNK2; read-out: Percent Control.
Source text: as §1

The target in another test is T4, EGFR(L858R) (Homo sapiens, UniProt P00533, L858R).
T4 construct: purchased Eurofins DiscoverX KINOMEscan
The test is described as follows: KINOMEscan 1 μM, EGFR(L858R). It counts as binding. The settings on record: 1000 nM; Entrez EGFR; read-out: Percent Control.
Source text: as §1

The target in the next test is T5, BRSK1 (Homo sapiens, UniProt Q8TDC3).
T5 construct: purchased Eurofins DiscoverX KINOMEscan
The test is described as follows: KINOMEscan 1 μM, BRSK1. The format is binding. Particulars: 1000 nM; Entrez BRSK1; read-out: Percent Control.
Source text: as §1

Another test has as its target T6, MLCK (Homo sapiens, UniProt Q32MK0).
T6 construct: purchased Eurofins DiscoverX KINOMEscan
The test is described as follows: KINOMEscan 1 μM, MLCK. The format is binding. Particulars: 1000 nM; Entrez MYLK3; read-out: Percent Control.
Source text: as §1

In another test the target is T7, AMPK-alpha1 (Homo sapiens, UniProt Q13131).
T7 construct: purchased Eurofins DiscoverX KINOMEscan
The test is described as follows: KINOMEscan 1 μM, AMPK-alpha1. The format is binding. Particulars: 1000 nM; Entrez PRKAA1; read-out: Percent Control.
Source text: as §1

For a further test, the target named is T8, BIKE (Homo sapiens, UniProt Q9NSY1).
T8 construct: purchased Eurofins DiscoverX KINOMEscan
T8 sequence (Q9NSY1 whole entry): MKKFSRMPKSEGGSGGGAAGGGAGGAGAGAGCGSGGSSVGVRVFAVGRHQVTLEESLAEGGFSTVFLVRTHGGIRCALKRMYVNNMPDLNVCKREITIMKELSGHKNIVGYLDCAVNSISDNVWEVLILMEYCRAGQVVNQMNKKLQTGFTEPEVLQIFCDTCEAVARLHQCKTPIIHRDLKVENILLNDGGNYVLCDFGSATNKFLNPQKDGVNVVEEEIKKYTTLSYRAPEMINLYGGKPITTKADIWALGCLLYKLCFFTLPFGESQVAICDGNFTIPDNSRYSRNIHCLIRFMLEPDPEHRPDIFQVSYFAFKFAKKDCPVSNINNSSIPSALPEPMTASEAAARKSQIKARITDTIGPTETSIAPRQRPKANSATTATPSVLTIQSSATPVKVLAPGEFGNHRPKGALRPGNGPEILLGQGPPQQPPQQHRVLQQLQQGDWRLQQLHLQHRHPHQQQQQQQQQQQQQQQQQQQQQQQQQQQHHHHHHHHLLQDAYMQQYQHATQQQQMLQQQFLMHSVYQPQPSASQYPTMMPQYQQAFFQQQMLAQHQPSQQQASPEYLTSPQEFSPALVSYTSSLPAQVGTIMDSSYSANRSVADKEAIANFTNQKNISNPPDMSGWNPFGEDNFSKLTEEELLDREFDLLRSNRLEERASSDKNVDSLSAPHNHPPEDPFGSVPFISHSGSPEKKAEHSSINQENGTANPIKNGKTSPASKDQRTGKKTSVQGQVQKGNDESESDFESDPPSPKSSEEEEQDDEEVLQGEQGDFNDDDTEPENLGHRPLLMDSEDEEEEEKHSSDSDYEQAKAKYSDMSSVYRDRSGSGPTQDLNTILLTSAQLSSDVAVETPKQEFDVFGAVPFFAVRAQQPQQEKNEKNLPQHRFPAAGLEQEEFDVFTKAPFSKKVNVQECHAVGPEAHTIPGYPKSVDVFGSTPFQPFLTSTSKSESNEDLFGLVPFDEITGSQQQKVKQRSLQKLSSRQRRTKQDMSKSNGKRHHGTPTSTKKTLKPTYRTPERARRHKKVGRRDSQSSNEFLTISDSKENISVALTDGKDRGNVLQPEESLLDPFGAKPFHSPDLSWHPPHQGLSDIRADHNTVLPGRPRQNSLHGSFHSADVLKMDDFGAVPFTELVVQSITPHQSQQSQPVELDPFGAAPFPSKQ
The test is described as follows: KINOMEscan 1 μM, BIKE. The format is binding. Particulars: 1000 nM; Entrez BMP2K; read-out: Percent Control.
Source text: as §1

Another test addresses T9, EPHA1 (Homo sapiens, UniProt P21709).
T9 construct: purchased Eurofins DiscoverX KINOMEscan
The test is described as follows: KINOMEscan 1 μM, EPHA1. It counts as binding. Particulars: 1000 nM; Entrez EPHA1; read-out: Percent Control.
Source text: as §1

For another test, the target named is T10, MKNK1 (Homo sapiens, UniProt Q9BUB5).
T10 construct: purchased Eurofins DiscoverX KINOMEscan
The test is described as follows: KINOMEscan 1 μM, MKNK1. Particulars: 1000 nM; Entrez MKNK1; read-out: Percent Control. The format is binding.
Source text: as §1

The target of test [2] is T11, RSK1(Kin.Dom.1-N-terminal) (Homo sapiens, UniProt Q15418).
T11 construct: RSK1(Kin.Dom.1-N-terminal); purchased Eurofins DiscoverX KINOMEscan
The test is described as follows: DiscoverX KINOMEscan binding assay at 1 μM, RSK1(Kin.Dom.1-N-terminal). Particulars: RSK1(Kin.Dom.1-N-terminal) (RPS6KA1); Compound Concentration 1000 nM; read-out: Percent Control.
Source text: as §1

For the next test, the target named is T12, WEE2 (Homo sapiens, UniProt P0C1S8).
T12 construct: purchased Eurofins DiscoverX KINOMEscan
The test is described as follows: DiscoverX KINOMEscan binding assay at 1 μM, WEE2. The settings on record: Compound Concentration 1000 nM, read-out: Percent Control.
Source text: as §1

Another test has as its target T13, YANK1 (Homo sapiens, UniProt Q8WU08).
T13 construct: purchased Eurofins DiscoverX KINOMEscan
The test is described as follows: DiscoverX KINOMEscan binding assay at 1 μM, YANK1. The settings on record: YANK1 (STK32A); Compound Concentration 1000 nM; read-out: Percent Control.
Source text: as §1

Test [3] addresses T14, ZAK (Homo sapiens, UniProt Q9NYL2).
T14 construct: purchased Eurofins DiscoverX KINOMEscan
The test is described as follows: DiscoverX KINOMEscan binding assay at 1 μM, ZAK. Particulars: Compound Concentration 1000 nM, read-out: Percent Control.
Source text: as §1

In the next test the target is T15, TRKA (Homo sapiens, UniProt P04629).
T15 construct: purchased Eurofins DiscoverX KINOMEscan
The test is described as follows: KINOMEscan at 1 μM, TRKA. It counts as binding. The settings on record: 1000 nM, read-out: Percent Control. An excerpt: (§2) Supplement cells-12-00287-s001.zip/File S2. KinomeScan data for the CAMKK2 probe and negative control.xlsx, sheet "SGC-CAMKK2-1N" | column: Percent Control

Test [4] concerns the target T16, ABL1(Q252H)-nonphosphorylated (Homo sapiens, UniProt P00519, Q252H).
T16 construct: purchased Eurofins DiscoverX KINOMEscan
The test is described as follows: KINOMEscan at 1 μM, ABL1(Q252H)-nonphosphorylated. The format is binding. Particulars: 1000 nM, read-out: Percent Control.
Source text: as §2

The target of test [5] is T14, ZAK. The test is described as follows: KINOMEscan at 1 μM, ZAK. The format is binding. The settings on record: 1000 nM, read-out: Percent Control.
Source text: as §2

The target in the next test is T17, BMPR2 (Homo sapiens, UniProt Q13873).
T17 construct: purchased Eurofins DiscoverX KINOMEscan
The test is described as follows: KINOMEscan at 1 μM, BMPR2. The format is binding. The settings on record: 1000 nM, read-out: Percent Control.
Source text: as §2

A further test has as its target T18, JNK2 (Homo sapiens, UniProt P45984).
T18 construct: purchased Eurofins DiscoverX KINOMEscan
The test is described as follows: KINOMEscan at 1 μM, JNK2. The settings on record: 1000 nM, read-out: Percent Control. The format is binding.
Source text: as §2

The target of a further test is T19, S6K1 (Homo sapiens, UniProt P23443).
T19 construct: purchased Eurofins DiscoverX KINOMEscan
The test is described as follows: KINOMEscan at 1 μM, S6K1. It counts as binding. The settings on record: 1000 nM, read-out: Percent Control.
Source text: as §2

The target of another test is T20, ROCK1 (Homo sapiens, UniProt Q13464).
T20 construct: purchased Eurofins DiscoverX KINOMEscan
The test is described as follows: KINOMEscan at 1 μM, ROCK1. The format is binding. Particulars: 1000 nM, read-out: Percent Control.
Source text: as §2

A further test has as its target T21, TAOK3 (Homo sapiens, UniProt Q9H2K8).
T21 construct: purchased Eurofins DiscoverX KINOMEscan
The test is described as follows: KINOMEscan at 1 μM, TAOK3. It counts as binding. Particulars: 1000 nM, read-out: Percent Control.
Source text: as §2

A further test deals with T22, TIE2 (Homo sapiens, UniProt Q02763).
T22 construct: purchased Eurofins DiscoverX KINOMEscan
T22 sequence (Q02763 23-1124): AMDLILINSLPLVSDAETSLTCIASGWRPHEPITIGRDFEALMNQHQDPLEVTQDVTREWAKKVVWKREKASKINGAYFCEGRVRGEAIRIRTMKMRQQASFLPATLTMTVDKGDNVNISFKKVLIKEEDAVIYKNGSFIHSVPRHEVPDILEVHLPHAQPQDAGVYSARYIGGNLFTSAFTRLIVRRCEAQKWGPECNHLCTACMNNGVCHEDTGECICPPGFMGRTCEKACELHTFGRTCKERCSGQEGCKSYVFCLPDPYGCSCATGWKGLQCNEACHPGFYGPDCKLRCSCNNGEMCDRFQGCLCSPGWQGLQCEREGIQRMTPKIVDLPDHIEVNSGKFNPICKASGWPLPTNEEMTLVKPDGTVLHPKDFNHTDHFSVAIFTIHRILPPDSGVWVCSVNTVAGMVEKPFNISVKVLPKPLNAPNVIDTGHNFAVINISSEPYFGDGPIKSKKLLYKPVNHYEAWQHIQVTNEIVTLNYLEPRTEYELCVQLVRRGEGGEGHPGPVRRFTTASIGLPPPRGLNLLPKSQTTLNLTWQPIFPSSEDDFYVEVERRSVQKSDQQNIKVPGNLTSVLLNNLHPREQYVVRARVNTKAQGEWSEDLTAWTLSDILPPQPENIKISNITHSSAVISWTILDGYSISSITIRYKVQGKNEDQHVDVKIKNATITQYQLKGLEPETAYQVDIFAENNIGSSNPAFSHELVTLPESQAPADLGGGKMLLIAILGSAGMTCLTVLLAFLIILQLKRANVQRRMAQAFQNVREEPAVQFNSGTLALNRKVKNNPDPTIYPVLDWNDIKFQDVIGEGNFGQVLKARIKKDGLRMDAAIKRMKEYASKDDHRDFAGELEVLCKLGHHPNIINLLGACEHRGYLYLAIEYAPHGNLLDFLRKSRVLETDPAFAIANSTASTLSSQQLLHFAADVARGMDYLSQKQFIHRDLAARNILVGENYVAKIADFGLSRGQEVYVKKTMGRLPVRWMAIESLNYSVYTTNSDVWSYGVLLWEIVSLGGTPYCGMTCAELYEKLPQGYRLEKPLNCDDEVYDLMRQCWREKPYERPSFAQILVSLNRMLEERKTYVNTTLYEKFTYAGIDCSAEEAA
The test is described as follows: KINOMEscan at 1 μM, TIE2. It counts as binding. Particulars: 1000 nM, read-out: Percent Control.
Source text: as §2

The next test has as its target T23, CIT (Homo sapiens, UniProt O14578).
T23 construct: purchased Eurofins DiscoverX KINOMEscan
The test is described as follows: KINOMEscan at 1 μM, CIT. The format is binding. The settings on record: 1000 nM, read-out: Percent Control.
Source text: as §2

The next test addresses T24, PRKR (Homo sapiens, UniProt P19525).
T24 construct: purchased Eurofins DiscoverX KINOMEscan
The test is described as follows: KINOMEscan at 1 μM, PRKR. Particulars: 1000 nM, read-out: Percent Control. The format is binding.
Source text: as §2

Another test addresses T25, ERK3 (Homo sapiens, UniProt Q16659).
T25 construct: purchased Eurofins DiscoverX KINOMEscan
The test is described as follows: KINOMEscan at 1 μM, ERK3. The format is binding. Particulars: 1000 nM, read-out: Percent Control.
Source text: as §2

Test [6] deals with T26, RSK1(Kin.Dom.2-C-terminal) (Homo sapiens, UniProt Q15418).
T26 construct: RSK1(Kin.Dom.2-C-terminal); purchased Eurofins DiscoverX KINOMEscan
The test is described as follows: KINOMEscan at 1 μM, RSK1(Kin.Dom.2-C-terminal). The format is binding. The settings on record: 1000 nM, read-out: Percent Control.
Source text: as §2

A further test has as its target T27, ERK1 (Homo sapiens, UniProt P27361).
T27 construct: purchased Eurofins DiscoverX KINOMEscan
The test is described as follows: KINOMEscan at 1 μM, ERK1. It counts as binding. Particulars: 1000 nM, read-out: Percent Control.
Source text: as §2

A further test has as its target T28, ASK1 (Homo sapiens, UniProt Q99683).
T28 construct: purchased Eurofins DiscoverX KINOMEscan
The test is described as follows: KINOMEscan at 1 μM, ASK1. The format is binding. The settings on record: 1000 nM, read-out: Percent Control.
Source text: as §2

In the next test the target is T29, FLT3(N841I) (Homo sapiens, UniProt P36888, N841I).
T29 construct: purchased Eurofins DiscoverX KINOMEscan
The test is described as follows: KINOMEscan binding assay at 1 μM, FLT3(N841I). Particulars: Compound Concentration 1000 nM; read-out: Percent Control.
Source text: as §2

A further test addresses T30, PCTK3 (Homo sapiens, UniProt Q07002).
T30 construct: purchased Eurofins DiscoverX KINOMEscan
The test is described as follows: KINOMEscan binding assay at 1 μM, PCTK3. The settings on record: Compound Concentration 1000 nM; read-out: Percent Control.
Source text: as §2

T14 sequence (Q9NYL2 whole entry): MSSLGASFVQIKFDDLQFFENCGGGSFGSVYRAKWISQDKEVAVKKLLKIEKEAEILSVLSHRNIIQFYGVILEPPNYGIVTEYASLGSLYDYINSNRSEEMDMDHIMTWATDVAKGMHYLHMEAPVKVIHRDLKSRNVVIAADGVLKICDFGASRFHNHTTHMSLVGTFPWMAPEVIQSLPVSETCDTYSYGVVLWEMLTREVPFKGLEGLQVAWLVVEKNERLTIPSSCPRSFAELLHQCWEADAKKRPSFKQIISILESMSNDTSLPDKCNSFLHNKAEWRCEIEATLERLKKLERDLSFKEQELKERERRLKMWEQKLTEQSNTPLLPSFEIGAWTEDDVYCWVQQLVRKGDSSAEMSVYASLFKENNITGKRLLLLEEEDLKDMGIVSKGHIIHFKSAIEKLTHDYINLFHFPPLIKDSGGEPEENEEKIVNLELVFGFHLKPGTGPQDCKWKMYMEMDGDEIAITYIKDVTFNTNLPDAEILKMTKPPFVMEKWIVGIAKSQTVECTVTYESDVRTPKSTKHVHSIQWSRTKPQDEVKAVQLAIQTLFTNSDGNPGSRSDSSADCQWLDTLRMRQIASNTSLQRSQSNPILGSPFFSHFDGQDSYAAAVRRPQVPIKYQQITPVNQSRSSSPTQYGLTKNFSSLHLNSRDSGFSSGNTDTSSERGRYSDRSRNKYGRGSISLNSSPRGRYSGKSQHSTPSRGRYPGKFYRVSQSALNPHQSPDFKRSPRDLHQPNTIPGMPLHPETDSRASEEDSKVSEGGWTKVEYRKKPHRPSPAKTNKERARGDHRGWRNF
T28 sequence (Q99683 whole entry): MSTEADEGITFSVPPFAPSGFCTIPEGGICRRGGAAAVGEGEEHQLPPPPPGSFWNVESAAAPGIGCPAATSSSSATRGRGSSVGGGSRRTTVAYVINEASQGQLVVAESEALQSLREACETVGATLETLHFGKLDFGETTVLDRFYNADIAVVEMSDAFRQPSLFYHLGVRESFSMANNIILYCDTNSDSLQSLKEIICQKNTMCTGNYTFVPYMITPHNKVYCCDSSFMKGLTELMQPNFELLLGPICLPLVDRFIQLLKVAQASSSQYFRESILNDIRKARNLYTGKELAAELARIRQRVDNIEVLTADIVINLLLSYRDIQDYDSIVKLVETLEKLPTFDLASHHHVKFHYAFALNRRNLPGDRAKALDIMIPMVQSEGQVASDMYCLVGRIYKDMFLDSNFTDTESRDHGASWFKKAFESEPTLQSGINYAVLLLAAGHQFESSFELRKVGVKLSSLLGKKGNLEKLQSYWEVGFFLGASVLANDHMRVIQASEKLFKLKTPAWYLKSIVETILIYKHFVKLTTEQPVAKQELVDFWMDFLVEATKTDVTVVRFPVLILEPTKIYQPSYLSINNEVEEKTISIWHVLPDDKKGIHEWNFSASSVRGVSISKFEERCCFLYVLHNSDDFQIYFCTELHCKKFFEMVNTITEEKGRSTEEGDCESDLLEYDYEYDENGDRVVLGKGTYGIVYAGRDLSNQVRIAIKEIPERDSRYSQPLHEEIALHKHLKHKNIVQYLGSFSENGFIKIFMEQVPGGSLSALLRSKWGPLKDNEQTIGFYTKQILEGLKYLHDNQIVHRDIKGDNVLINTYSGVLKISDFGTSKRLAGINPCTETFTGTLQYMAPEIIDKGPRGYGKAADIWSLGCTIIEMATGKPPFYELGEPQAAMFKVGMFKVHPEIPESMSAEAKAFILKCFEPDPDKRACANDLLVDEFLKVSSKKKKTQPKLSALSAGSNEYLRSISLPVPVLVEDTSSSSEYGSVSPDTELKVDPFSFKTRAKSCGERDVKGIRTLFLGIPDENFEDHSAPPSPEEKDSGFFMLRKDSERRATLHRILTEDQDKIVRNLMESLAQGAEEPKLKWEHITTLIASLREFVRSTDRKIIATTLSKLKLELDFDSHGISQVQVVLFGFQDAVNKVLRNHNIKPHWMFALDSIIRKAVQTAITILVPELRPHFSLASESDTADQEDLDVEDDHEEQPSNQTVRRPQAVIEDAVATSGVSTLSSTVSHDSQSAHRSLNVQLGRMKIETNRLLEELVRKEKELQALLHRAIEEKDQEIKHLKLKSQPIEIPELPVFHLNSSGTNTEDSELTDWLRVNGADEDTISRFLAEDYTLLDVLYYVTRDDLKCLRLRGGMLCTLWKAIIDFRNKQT
T27 sequence (P27361 whole entry): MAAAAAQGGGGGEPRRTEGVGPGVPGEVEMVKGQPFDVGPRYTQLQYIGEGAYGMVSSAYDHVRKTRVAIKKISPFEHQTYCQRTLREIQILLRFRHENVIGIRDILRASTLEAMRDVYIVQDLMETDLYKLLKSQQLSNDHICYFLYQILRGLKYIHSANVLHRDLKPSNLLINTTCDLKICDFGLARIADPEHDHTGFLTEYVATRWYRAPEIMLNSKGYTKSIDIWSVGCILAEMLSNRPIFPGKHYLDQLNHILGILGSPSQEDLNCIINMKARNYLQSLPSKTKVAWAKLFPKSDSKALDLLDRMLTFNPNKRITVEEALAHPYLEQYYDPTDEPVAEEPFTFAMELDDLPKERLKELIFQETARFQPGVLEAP

As to `Cc1cccc(-c2cnc3occ(-c4ccc(C(=O)O)c(C5CCCC5)c4)c3c2)c1` [Compound 5], in test [1], the IC50 is 0.27 µM.
In the case of `O=C(O)c1ccc(-c2coc3ncc(-c4ccccc4)cc23)cc1Cl` [Compound 7], the IC50 on PIM2 came to 1.9 µM.
As for `Cc1cccc(-c2cnc3occ(-c4ccc(C(=O)O)c(C5CCCC5)c4)c3c2)c1` [SGC-CAMKK2-1 (YL-36)], the remaining binding at 1 µM on PAK6 was 67%; on WNK2, 67%; at EGFR(L858R), 77%; on BRSK1, 82%; on MLCK it was 86%; at AMPK-alpha1, 95%. Further, the remaining binding at 1 µM (at BIKE; on EPHA1; on MKNK1; in test [2]; at WEE2; on YANK1) was 100% each time. Further, on ZAK [3], the remaining binding at 1 µM is 100%.
Regarding `O=C(O)c1ccc(-c2coc3ncc(-c4ccccc4)cc23)cc1Cl` [SGC-CAMKK2-1N (UNC-YL-83)], the remaining binding at 1 µM on TRKA was 38%; in test [4], 59%; at ZAK [5], 69%; on BMPR2, 71%; at JNK2 it was 76%; at S6K1, 76%. Also, the remaining binding at 1 µM at ROCK1 came out at 79%; on TAOK3, 79%; on TIE2 it was 79%; at CIT, 87%; at PRKR, 90%; on ERK3 it was 92%. In addition, the remaining binding at 1 µM stood at 94% in test [6]; 95% on ERK1; 100% on ASK1; 100% on FLT3(N841I); 100% at PCTK3.
